Measurements taken from PubChem BioAssay (NCI).
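Results reflect a 48-hour exposure of cells in 96-well plates to compound at five concentrations. GI50 marks 50% less growth. TGI marks complete inhibition of growth.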

Experiments:
Assay in all cases: growth of human tumour cells (NCI), 48 h
OVCAR-3 ovarian = system: OVCAR-3 ovarian
HOP-62 NSCLC = system: HOP-62 NSCLC
UACC-257 melanoma = system: UACC-257 melanoma
PC-3 prostate = system: PC-3 prostate
NCI/ADR-RES ovarian = system: NCI/ADR-RES ovarian
NCI-H522 lung = system: NCI-H522 lung
MALME-3M melanoma = system: MALME-3M melanoma
NCI-H23 lung = system: NCI-H23 lung
SNB-19 CNS = system: SNB-19 CNS
SNB-75 CNS = system: SNB-75 CNS
SK-MEL-5 melanoma = system: SK-MEL-5 melanoma
HS 578T breast = system: HS 578T breast
SK-OV-3 ovarian = system: SK-OV-3 ovarian
KM12 colon = system: KM12 colon
786-0 renal = system: 786-0 renal
MDA-MB-435 = system: MDA-MB-435
T-47D breast = system: T-47D breast
SK-MEL-28 melanoma = system: SK-MEL-28 melanoma
CCRF-CEM leukemia = system: CCRF-CEM leukemia
MOLT-4 leukemia = system: MOLT-4 leukemia
SF-295 CNS = system: SF-295 CNS
UO-31 renal = system: UO-31 renal
HCT-116 colon = system: HCT-116 colon
NCI-H460 lung = system: NCI-H460 lung
MDA-MB-231 breast = system: MDA-MB-231 breast
SF-539 CNS = system: SF-539 CNS
UACC-62 melanoma = system: UACC-62 melanoma
RPMI-8226 leukemia = system: RPMI-8226 leukemia
NCI-H226 lung = system: NCI-H226 lung
IGROV1 ovarian = system: IGROV1 ovarian
EKVX NSCLC = system: EKVX NSCLC
MCF7 breast = system: MCF7 breast
ACHN renal = system: ACHN renal
SK-MEL-2 melanoma = system: SK-MEL-2 melanoma
BT-549 breast = system: BT-549 breast
SW-620 colon = system: SW-620 colon
U251 CNS = system: U251 CNS
RXF 393 renal = system: RXF 393 renal
HL-60(TB) leukemia = system: HL-60(TB) leukemia
TK-10 renal = system: TK-10 renal
OVCAR-4 ovarian = system: OVCAR-4 ovarian
HCC-2998 colon = system: HCC-2998 colon
HT29 colon = system: HT29 colon
HOP-92 NSCLC = system: HOP-92 NSCLC
M14 melanoma = system: M14 melanoma
OVCAR-5 ovarian = system: OVCAR-5 ovarian
SN12C renal = system: SN12C renal
DU-145 prostate = system: DU-145 prostate
SF-268 CNS = system: SF-268 CNS
K-562 leukemia = system: K-562 leukemia
HCT-15 colon = system: HCT-15 colon
OVCAR-8 ovarian = system: OVCAR-8 ovarian
CAKI-1 renal = system: CAKI-1 renal
A498 renal = system: A498 renal
A549 NSCLC = system: A549 NSCLC
COLO 205 colon = system: COLO 205 colon

## C[C@@H]1CC[C@H]2C(COC/C=C/COCC3=C(C(F)(F)F)O[C@@H]4O[C@@]5(C)CC[C@H]6[C@H](C)CC[C@@H]3[C@@]46OO5)=C(C(F)(F)F)O[C@@H]3O[C@@]4(C)CC[C@@H]1[C@]32OO4
OVCAR-3 ovarian
  GI50: < 11.4 nM
  TGI: 336 nM
HOP-62 NSCLC
  TGI: > 100000 nM
UACC-257 melanoma
  GI50: 53.8 nM
  TGI: 11800 nM
PC-3 prostate
  GI50: < 10 nM
NCI/ADR-RES ovarian
  GI50: 3140 nM
  TGI: > 71300 nM
NCI-H522 lung
  GI50: 327 nM
  TGI: > 100000 nM
MALME-3M melanoma
  GI50: < 10 nM
  TGI: 44.5 nM
NCI-H23 lung
  GI50: < 17.8 nM
  TGI: 12300 nM
SNB-19 CNS
  GI50: 542 nM
  TGI: > 100000 nM
SNB-75 CNS
  GI50: 12700 nM
  TGI: > 100000 nM
SK-MEL-5 melanoma
  GI50: 86.6 nM
  TGI: > 100000 nM
HS 578T breast
  GI50: 42.9 nM
  TGI: > 100000 nM
SK-OV-3 ovarian
  GI50: > 100000 nM
  TGI: > 100000 nM
KM12 colon
  GI50: < 10 nM
  TGI: 32.8 nM
786-0 renal
  TGI: > 100000 nM
MDA-MB-435
  GI50: < 12 nM
T-47D breast
  TGI: > 100000 nM
SK-MEL-28 melanoma
  GI50: 63900 nM
  TGI: > 100000 nM
CCRF-CEM leukemia
  GI50: 14.8 nM
  TGI: > 38400 nM
MOLT-4 leukemia
  GI50: < 10 nM
  TGI: 40600 nM
SF-295 CNS
  GI50: < 24.4 nM
UO-31 renal
  GI50: 786 nM
  TGI: > 100000 nM
HCT-116 colon
  GI50: < 10 nM
  TGI: > 100000 nM
NCI-H460 lung
  GI50: 22.6 nM
  TGI: > 100000 nM
MDA-MB-231 breast
  GI50: < 41.6 nM
  TGI: 865 nM
SF-539 CNS
  GI50: < 24.2 nM
  TGI: > 21400 nM
UACC-62 melanoma
  GI50: 78.1 nM
  TGI: > 100000 nM
RPMI-8226 leukemia
  GI50: < 10 nM
  TGI: > 100000 nM
NCI-H226 lung
  GI50: 19.9 nM
  TGI: 191 nM
IGROV1 ovarian
  GI50: 1270 nM
  TGI: 98200 nM
EKVX NSCLC
  GI50: 72 nM
  TGI: > 100000 nM
MCF7 breast
  GI50: 28 nM
  TGI: > 58300 nM
ACHN renal
  GI50: 46.8 nM
  TGI: 753 nM
SK-MEL-2 melanoma
  GI50: 387 nM
  TGI: > 100000 nM
BT-549 breast
  GI50: 64.4 nM
  TGI: > 100000 nM
SW-620 colon
  GI50: 10.1 nM
  TGI: > 100000 nM
U251 CNS
  GI50: < 10 nM
  TGI: 179 nM
RXF 393 renal
  GI50: 1640 nM
  TGI: > 20700 nM
HL-60(TB) leukemia
  GI50: < 10 nM
  TGI: 46.8 nM
TK-10 renal
  GI50: 36 nM
  TGI: > 100000 nM
OVCAR-4 ovarian
  GI50: 518 nM
  TGI: > 100000 nM
HCC-2998 colon
  GI50: 472 nM
  TGI: > 100000 nM
HT29 colon
  GI50: 16.9 nM
  TGI: > 100000 nM
HOP-92 NSCLC
  GI50: < 32 nM
M14 melanoma
  TGI: > 100000 nM
OVCAR-5 ovarian
  GI50: 17.5 nM
  TGI: > 100000 nM
SN12C renal
  GI50: 19.1 nM
  TGI: 685 nM
DU-145 prostate
  GI50: 531 nM
  TGI: > 100000 nM
SF-268 CNS
  GI50: 84.6 nM
  TGI: > 100000 nM
K-562 leukemia
  GI50: < 11.6 nM
  TGI: > 47000 nM
HCT-15 colon
  GI50: 38 nM
  TGI: 14200 nM
OVCAR-8 ovarian
  GI50: < 20.6 nM
  TGI: > 32600 nM
CAKI-1 renal
  GI50: 158 nM
A498 renal
  GI50: 1540 nM
  TGI: > 100000 nM
A549 NSCLC
  GI50: < 13.8 nM
  TGI: > 50100 nM
COLO 205 colon
  GI50: < 17.4 nM
